In PubChem BioAssay (NCI):
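1) Cells in 96-well plates. 2) Compound, 48 h, 5 concentrations. 3) Linear interpolation between surrounding doses. 4) Unreached endpoint = highest concentration. Here, GI50 denotes the concentration required for 50% inhibition of growth. TGI marks complete inhibition of growth.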

How the values were obtained:
Assay in all cases: DTP human tumour cell line panel, 48 h
[1] = system: 786-0 renal
[2] = system: EKVX NSCLC
[3] = system: NCI-H460 lung
[4] = system: RPMI-8226 leukemia
[5] = system: RXF 393 renal
[6] = system: SNB-75 CNS
[7] = system: T-47D breast
[8] = system: UACC-257 melanoma

Compound | GI50 [1] | TGI [1] | GI50 [2] | TGI [2] | GI50 [3] | TGI [3] | GI50 [4] | TGI [4] | GI50 [5] | TGI [5] | GI50 [6] [µM] | TGI [6] [µM] | GI50 [7] | TGI [7] | GI50 [8] | TGI [8]
Cc1cc(C(=O)O)c(C)n1-c1cccc(C(=O)O)c1 | > 100 µM | > 100 µM | > 100 µM | > 100 µM | > 100 µM | > 100 µM | > 100 µM | > 100 µM | > 100 µM | > 100 µM | > 100 | > 100 | > 100 µM | > 100 µM | > 100 µM | > 100 µM
C/C(=N\NC(=S)N1CC2CCC(CC2)C1)c1cccc(C)n1 |  | 11.7 µM | 0.326 µM | 4.63 µM | 0.0633 µM | 5.53 µM | 0.16 µM | 17.1 µM |  | 14.8 µM |  | 13.1 |  | 20.6 µM | 0.68 µM | 9.8 µM
COC(=O)/C=C1/SC(N2N=C(c3cccs3)CC2c2ccc(F)cc2)=NC1=O (stereo unspecified) | 3.12 µM | 8.61 µM | 3.49 µM | 23.6 µM | 2.19 µM | 4.93 µM | 2.08 µM | 5.36 µM | 1.73 µM | 3.26 µM | 1.64 | 7.28 | 3.27 µM | 8.31 µM | 2.39 µM | 6.83 µM
CC(=O)C1=C(C)N(C)C2(O)C=CC(=O)C3=C(O)c4ccccc4C(=O)C312 (stereo unspecified) | 2.59 µM | 7.36 µM | 15.3 µM | 33.4 µM | 10.6 µM | 42 µM | 3.02 µM | 31.5 µM |  |  | 19.9 | 43.8 |  |  | 5.73 µM | > 100 µM
CCCCc1n(Cc2ccc3ccccc3c2)cc[n+]1Cc1ccc2ccccc2c1 | 1.52 µM | 2.97 µM |  |  |  |  |  |  | 1.19 µM | 2.49 µM | 0.908 | 2.4 |  |  | 1.04 µM | 2.32 µM
C=CC/C(=C\COP(=O)(OCc1ccc([N+](=O)[O-])o1)N(C)CCCCCl)CC/C=C(\C)CCC=C(C)C (stereo unspecified) | 13.2 µM | 25.9 µM | 18.9 µM | 35.7 µM | 2.56 µM | 15.1 µM | 4.66 µM | 19.3 µM | 12.4 µM | 24.9 µM | 13.5 | 29.1 | 20.6 µM | 53.9 µM | 16.5 µM | 30 µM
CCCCN(CCCC)CCC(O)c1cc2c(Cl)cc(Cl)cc2c2cc(C(F)(F)F)ccc12 (stereo unspecified) |  | 25.7 µM |  | 29.1 µM |  | 25.5 µM |  | 28.4 µM |  |  |  | 25.3 |  | 28.9 µM |  | 29.6 µM
C/C(=N\NC(=S)N1CCCCCCCCCCCC1)c1ccccn1 |  | 1.24 µM |  | 0.432 µM |  | 1.43 µM |  |  |  | 0.536 µM |  | 1 |  | 1.25 µM |  | 0.414 µM
O=C(O)CCc1c2ccc(=O)c(O)c-2oc2c(O)c(O)ccc12 |  | > 100 µM |  | > 100 µM |  | > 100 µM |  | 75.3 µM |  | > 100 µM |  | > 100 |  | > 100 µM |  | > 100 µM
Oc1cccc(/C=N/Nc2nnc(N/N=C/c3cccc(O)c3)c3ccccc23)c1 |  | 38.5 µM |  | 43.6 µM |  | > 100 µM |  | 92.2 µM |  | > 100 µM |  | 50.5 |  | 61.8 µM |  | > 100 µM
Cc1[nH]nc2c1N=C(c1ccccc1F)c1cc(C(N)=O)ccc1N2 | 2.82 µM | > 25 µM |  |  | 3.33 µM | > 25 µM | > 25 µM | > 25 µM | 0.975 µM | 6.15 µM | 0.0838 | 1.69 | 2.89 µM | > 15.8 µM | 9.15 µM | > 25 µM
CCOC(=O)c1c(C)nc2c(c1N)CC(=O)N2CCc1ccccc1 | 0.466 µM | 17.1 µM | 6.06 µM | 68.8 µM | 1.77 µM | 14.1 µM | 0.345 µM | 5.6 µM | 4.05 µM | 15.3 µM | 1.37 | 18.1 | 0.962 µM | 22.9 µM | 4.68 µM | 19.4 µM
COc1ccc2c(Cl)cc(NC(=O)Nc3c(C)cccc3C)nc2c1 | 7.92 µM | > 100 µM |  |  | 4.02 µM | > 100 µM | > 100 µM | > 100 µM | 4.97 µM | 24.8 µM | 1.47 | 6.01 | 22.5 µM | > 100 µM | 20 µM | > 100 µM
C=C(CC(=O)O)C(=O)O (tested in a mixture with another compound) | > 50 µg/mL | > 50 µg/mL | 40.6 µg/mL | > 50 µg/mL | > 50 µg/mL | > 50 µg/mL | > 50 µg/mL | > 50 µg/mL | 10.2 µg/mL | > 50 µg/mL |  |  | > 50 µg/mL | > 50 µg/mL | > 50 µg/mL | > 50 µg/mL
O=C1Nc2ccccc2/C1=C\c1nc(C2CCN(S(=O)(=O)c3ccc(F)cc3)CC2)n2ccccc12 | 2.37 µM | 6.71 µM | 4.87 µM | > 100 µM | 9.97 µM | > 100 µM | > 100 µM | > 100 µM |  |  |  |  | 4.57 µM | > 100 µM |  | 
CC(/C=C/c1ccccc1)=N\NC(N)=S |  | > 100 µM |  | > 100 µM |  | > 100 µM |  | 93.5 µM |  |  |  |  |  | 49.1 µM |  | > 100 µM
C[C@]1(Cn2ccnn2)C(C(=O)O)N2C(=O)CC2S1(=O)=O (stereo partly specified) | > 100 µM | > 100 µM |  |  | > 100 µM | > 100 µM | > 100 µM | > 100 µM | > 100 µM | > 100 µM | > 100 | > 100 | > 100 µM | > 100 µM | > 100 µM | > 100 µM
COc1ccc(/C=C2\CN(Cc3cn(CCNc4ccnc5cc(Cl)ccc45)nn3)C/C(=C\c3ccc(OC)c(OC)c3)C2=O)cc1OC | 3.35 µM | 12.4 µM |  |  | 2.22 µM | 5.74 µM | 3 µM | 39 µM | 1.81 µM | 3.62 µM | 6.67 | 40.7 | 5.05 µM | > 100 µM | 4.8 µM | 23.1 µM
N=C(N)c1ccc(NCCOCCNc2ccc(C(=N)N)cc2)cc1 | > 100 µM | > 100 µM | 21.7 µM | > 100 µM | 2.94 µM | > 100 µM | 22 µM | > 100 µM |  |  | 19.2 | 81.3 | 7.17 µM | 75.6 µM | > 100 µM | > 100 µM
